Source: patent US20250136595A1, “ACYLATED HETEROCYCLIC QUINAZOLINE DERIVATIVES AS INHIBITORS OF ERBB2” (Enliven Inc., priority 2022, published 2025)

Assays:
[1] = biological target: T1, phosphorylated ERBB2 (pERBB2) (Homo sapiens, UniProt P04626); test: Detection of phosphorylated ERBB2 (pERBB2) by ELISA in BT-474 cells; assay type: cell-based; conditions: four hour incubation with compound
T1 construct: endogenous in cells; host or cells: BT-474
Method: BT-474 cells were seeded into a 96-well at 2.0*10^4 cells/100 μl/well. Compounds were dissolved and serially diluted in DMSO. The compounds were then were added, mixed, and incubated for four hours at 37° C., 5% CO2. Compounds were added using four-fold dilutions at final concentrations ranging from 10 μM to 0.01 nM. Following the four hour incubation with compounds, cell lysates were prepared. Plates were centrifuged for 5 min at 3000 RPM, and supernatant was removed from each well. Cells were washed 3 times by resuspension in 150 μl PBS, followed by centrifugation and removal of the supernatant, as above. […] Cells were incubated with lysis buffer for 1 hour at 4° C., and then stored at -80° C. Enzyme-linked immunosorbent assays (ELISA) were performed to measure phosphorylated ERBB2 levels. […] The next day, plates were washed with PBS+0.05% Tween20 (PBST). 150 μl of 5% BSA blocking solution was added for 1 hour at room temperature, with shaking. Plates were washed with PBST. Cell lysates were thawed and 100 μl of lysate was added to the ELISA plate. The plates were incubated for 2 hours at room temperature, with shaking. […] Plates were incubated for 1 hour at room temperature, with shaking. Plates were then washed with PBST, and 100 μl TMB substrate solution (R&D Systems, cat #DY999) was added. Plate were incubated in the dark for 20 minutes at room temperature. 50 μl of Stop solution (R&D Systems, cat #DY994) (50 μl) was added to each well and mixed. Optical density at 450 nm was read on an EnSpire plate reader (Perkin Elmer). The remaining kinase activity by calculated using the following formula: % Relative activity=100×([…]). The low and high control values (“LC” and “HC”) were generated from lysate from wells without cells or with cells treated with 0.1% DMSO, respectively.

[2] = biological target: T2, phosphorylated EGFR (pEGFR) (Homo sapiens, UniProt P00533); test: Detection of phosphorylated EGFR (pEGFR) in EGF-stimulated A431 cells (AlphaLISA); assay type: cell-based; conditions: A431 cells (10% FBS), 4 hours incubation, EGF 30 ng/mL for 10 minutes
T2 construct: performed to measure phosphorylated EGFR levels using A431 cells; endogenous in cells; host or cells: A431
T2 sequence (P00533 25-1210): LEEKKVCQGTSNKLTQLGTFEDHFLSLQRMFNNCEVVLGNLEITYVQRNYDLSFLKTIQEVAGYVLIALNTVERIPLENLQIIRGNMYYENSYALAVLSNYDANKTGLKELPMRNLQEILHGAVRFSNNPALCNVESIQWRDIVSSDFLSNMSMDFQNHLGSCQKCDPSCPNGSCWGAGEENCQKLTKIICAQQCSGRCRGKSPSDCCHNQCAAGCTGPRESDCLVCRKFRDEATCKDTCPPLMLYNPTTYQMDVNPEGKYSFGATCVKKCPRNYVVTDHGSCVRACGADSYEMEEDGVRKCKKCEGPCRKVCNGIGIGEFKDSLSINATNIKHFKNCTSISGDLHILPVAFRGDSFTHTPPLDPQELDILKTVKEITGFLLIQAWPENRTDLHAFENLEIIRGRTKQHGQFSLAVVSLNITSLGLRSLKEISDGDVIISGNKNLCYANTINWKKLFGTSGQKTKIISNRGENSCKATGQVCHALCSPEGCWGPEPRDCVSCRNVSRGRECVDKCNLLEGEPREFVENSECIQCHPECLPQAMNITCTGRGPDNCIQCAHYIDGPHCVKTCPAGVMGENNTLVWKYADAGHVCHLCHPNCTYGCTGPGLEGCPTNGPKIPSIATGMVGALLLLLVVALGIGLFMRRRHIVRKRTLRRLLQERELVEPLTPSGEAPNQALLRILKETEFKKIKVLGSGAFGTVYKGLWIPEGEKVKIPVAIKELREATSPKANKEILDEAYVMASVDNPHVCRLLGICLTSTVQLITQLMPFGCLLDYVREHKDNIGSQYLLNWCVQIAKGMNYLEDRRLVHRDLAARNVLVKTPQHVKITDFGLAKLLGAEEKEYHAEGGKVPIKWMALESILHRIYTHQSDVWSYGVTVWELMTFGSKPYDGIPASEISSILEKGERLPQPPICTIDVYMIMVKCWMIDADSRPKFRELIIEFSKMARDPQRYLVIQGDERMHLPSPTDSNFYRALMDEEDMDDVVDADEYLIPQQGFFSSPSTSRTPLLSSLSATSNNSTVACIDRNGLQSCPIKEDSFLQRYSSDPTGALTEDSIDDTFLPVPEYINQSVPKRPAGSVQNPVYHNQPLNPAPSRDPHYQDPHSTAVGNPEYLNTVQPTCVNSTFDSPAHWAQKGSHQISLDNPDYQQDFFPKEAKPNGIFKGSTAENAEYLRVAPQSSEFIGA
Method: Enzyme-linked immunosorbent assays (ELISA) were performed to measure phosphorylated EGFR levels using A431 cells (10% FBS). A431 (1.0*10^4 cells/40 μl/well) cells were seeded in 384 well. Compounds were dissolved in DMSO, serially diluted in DMSO and then were added, mixed, and incubated for 4 hours at 37° C., 5% CO2. Following the 4-hours incubation, cells were stimulated for 10 minutes with EGF (Invitrogen, cat #PHG0311) at a final concentration of 30 ng/mL in the incubator. The media was aspirated and cells were lysed in 10 μL lysis buffer with protease and phosphatase inhibitors (PerkinElmer, cat #ALSU-PEGFR-A50K). The plates were placed on a shaker for 5 minutes and then incubated for 30 min at 4° C. for complete lysis. The lysate was transferred to an Optiplate (Perkin Elmer, cat #6007290).
Acceptor mix (PerkinElmer, cat #ALSU-PEGFR-A50K) was prepared just before use and 5 μL was dispensed to all the wells, followed by a 1.5-2 h incubation at room temperature in dark. The donor mix (PerkinElmer, cat #ALSU-PEGFR-A50K) was prepared under low light conditions prior to use and 5 μl of donor mix was added to all the wells under subdued lighting or green filters. The plates were placed on a shaker for 5 min, sealed, and incubated overnight at room temperature in dark. Plates were read on the Envision (PerkinElmer) using standard AlphaLISA settings.
The percentage of inhibition on EGFR phosphorylation was calculated following equation: % Inhibition=100×(LumHC−LumSample)/(LumHC−LumLC). The low and high controls (LC/HC) are generated from lysate from wells with cells treated with DMSO or […] Staurosporine (BioAustralis, cat #BIA-S1086), […]. IC50 values were calculated by fitting the Curve using XLfit (v5.3.1.3), equation 201: Y=Bottom+ (Top−Bottom)/(1+10^((LogIC50−X)*HillSlope)).

[3] = biological target: Ba/F3 ERBB2 YVMA (Homo sapiens, UniProt P04626, DUP772-775, cells depend on it); test: Cell viability assay (CellTiter Glo) in Ba/F3 cells engineered to express ERBB2 YVMA; assay type: cell-based, mouse; conditions: Ba/F3 cells expressing human ERBB2 YVMA mutant, 72 hours, % viability, read-out: Ba/F3 ERBB2 YVMA IC50
Sequence of Ba/F3 ERBB2 YVMA (P04626 with tags, fused parts or gaps DUP772-775): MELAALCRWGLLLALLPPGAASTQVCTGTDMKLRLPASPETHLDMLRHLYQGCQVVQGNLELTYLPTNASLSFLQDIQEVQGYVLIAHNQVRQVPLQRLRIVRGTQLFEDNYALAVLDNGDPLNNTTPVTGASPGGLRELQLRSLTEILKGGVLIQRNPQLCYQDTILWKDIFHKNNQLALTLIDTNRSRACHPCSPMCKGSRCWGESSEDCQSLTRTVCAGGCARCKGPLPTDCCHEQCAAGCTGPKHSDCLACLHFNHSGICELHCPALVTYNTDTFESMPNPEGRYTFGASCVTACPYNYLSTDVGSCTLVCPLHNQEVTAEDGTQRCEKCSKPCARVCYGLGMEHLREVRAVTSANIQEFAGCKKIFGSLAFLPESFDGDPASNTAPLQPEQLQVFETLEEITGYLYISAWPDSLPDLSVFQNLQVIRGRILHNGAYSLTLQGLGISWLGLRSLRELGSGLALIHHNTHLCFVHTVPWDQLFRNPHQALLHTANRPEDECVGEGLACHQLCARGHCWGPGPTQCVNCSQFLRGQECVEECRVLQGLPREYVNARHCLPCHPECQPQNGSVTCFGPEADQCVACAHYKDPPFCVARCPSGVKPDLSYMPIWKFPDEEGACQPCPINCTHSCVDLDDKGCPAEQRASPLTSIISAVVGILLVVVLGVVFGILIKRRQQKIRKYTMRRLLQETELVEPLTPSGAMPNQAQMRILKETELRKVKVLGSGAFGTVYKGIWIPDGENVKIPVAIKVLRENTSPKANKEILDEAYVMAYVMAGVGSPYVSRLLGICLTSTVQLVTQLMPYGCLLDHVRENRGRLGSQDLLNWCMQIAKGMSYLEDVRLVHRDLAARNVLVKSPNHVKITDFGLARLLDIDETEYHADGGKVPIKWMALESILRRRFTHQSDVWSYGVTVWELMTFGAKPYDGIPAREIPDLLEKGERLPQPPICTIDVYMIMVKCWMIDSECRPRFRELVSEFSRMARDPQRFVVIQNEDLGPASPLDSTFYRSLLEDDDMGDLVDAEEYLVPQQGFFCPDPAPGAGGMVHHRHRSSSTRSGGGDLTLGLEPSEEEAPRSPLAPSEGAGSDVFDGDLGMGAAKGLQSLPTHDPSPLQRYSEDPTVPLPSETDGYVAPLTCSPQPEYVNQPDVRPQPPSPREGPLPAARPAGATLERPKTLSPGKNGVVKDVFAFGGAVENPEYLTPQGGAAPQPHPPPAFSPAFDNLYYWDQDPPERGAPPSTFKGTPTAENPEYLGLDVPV
Method: Cells were treated with compounds, and cell viability was measured as a metric of kinase inhibition.
The Ba/F3 cell line is IL-3-dependent mouse cell line derived from the C3H mouse strain. Ba/F3 cell lines were engineered to express human ERBB2 or EGFR kinases, rendering the cells IL-3 independent. The lines were generated via retroviral transduction utilizing a Moloney murine leukemia virus (MMLV) promoter, and constructs are stably integrated into the cell genome. The sequences of the ERBB2 and EGFR genes used were NCBI Reference Sequences NM_004448.3 and NM_005228.3, respectively.
Similarly, Ba/F3 cell lines engineered to express EGFR, ERBB2, or ERBB2 mutants were grown, harvested, counted and seeded at 3000 cells per well in 96-well plates for the data sets shown in Tables B3-B4. A subset of wells contained media only (low control, “LC”).
Table B1 provides the growth media and number of cells seeded per well for the each cell line.
Compounds were dissolved in DMSO and serially diluted. Serially-diluted compound or a DMSO only control (high control, “HC”) was added to the plated cells in each well. […] The final proportion of DMSO never exceeded 0.1%.
Plates were placed in a 37° C., 5% CO2 incubator for 72 hours. Plates were then removed from the incubator and equilibrated for 15 minutes at room temperature. 40 μl of CellTiter Glo reagent (Promega) was added to measure the relative level of metabolically active cells by quantifying intracellular ATP concentrations. Plates were incubated for 30 minutes at room temperature, and luminescence was measured. Percent viability was normalized to a vehicle control only using the following formula: % viability=100×(Lumsample−LumLC)/(LumHC−LumLC). Graphical curves were fitted using a nonlinear regression model with a sigmoidal dose response.

T1 sequence (P04626 23-1255): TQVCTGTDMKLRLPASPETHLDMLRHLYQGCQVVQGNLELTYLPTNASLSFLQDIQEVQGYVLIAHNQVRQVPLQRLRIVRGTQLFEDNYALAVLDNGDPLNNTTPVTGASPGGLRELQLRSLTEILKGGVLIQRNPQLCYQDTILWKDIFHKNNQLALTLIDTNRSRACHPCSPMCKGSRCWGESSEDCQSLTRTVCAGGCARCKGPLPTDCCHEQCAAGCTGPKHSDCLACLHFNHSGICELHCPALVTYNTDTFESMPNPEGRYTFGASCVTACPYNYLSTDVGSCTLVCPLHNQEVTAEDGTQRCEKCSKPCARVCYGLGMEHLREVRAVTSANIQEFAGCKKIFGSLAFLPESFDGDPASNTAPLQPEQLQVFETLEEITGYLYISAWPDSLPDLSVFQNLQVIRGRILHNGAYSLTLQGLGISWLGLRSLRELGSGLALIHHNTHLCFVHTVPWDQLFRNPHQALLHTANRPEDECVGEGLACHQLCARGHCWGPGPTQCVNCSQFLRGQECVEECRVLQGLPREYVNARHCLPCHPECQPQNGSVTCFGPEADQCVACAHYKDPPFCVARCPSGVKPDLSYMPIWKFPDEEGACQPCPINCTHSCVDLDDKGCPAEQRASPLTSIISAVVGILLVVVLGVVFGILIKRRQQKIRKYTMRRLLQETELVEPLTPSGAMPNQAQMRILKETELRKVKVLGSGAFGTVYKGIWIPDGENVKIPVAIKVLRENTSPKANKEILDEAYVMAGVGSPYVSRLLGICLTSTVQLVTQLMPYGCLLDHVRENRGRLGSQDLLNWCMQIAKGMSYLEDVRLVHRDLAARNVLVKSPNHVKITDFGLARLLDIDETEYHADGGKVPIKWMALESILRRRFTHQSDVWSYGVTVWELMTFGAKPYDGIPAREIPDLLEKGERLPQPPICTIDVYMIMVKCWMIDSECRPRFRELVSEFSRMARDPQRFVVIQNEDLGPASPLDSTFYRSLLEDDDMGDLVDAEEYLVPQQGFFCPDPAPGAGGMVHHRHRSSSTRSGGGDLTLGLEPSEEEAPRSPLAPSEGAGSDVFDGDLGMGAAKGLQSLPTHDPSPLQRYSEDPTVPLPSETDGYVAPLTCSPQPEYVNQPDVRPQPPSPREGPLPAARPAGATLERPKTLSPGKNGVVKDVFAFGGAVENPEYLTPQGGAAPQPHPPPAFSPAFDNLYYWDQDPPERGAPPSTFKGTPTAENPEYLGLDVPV

SMILES | IC50 [1] | IC50 [2] | GI50 [3]
C=CC(=O)N1CCN(c2cc3c(Nc4ccc(Oc5ccc6c(c5)ncn6C)c(C)c4)ncnc3cn2)C[C@H]1C [Compound 59, 1-[(2R)-2-methyl-4-[4-({3-methyl-4-[(1-methyl-1,3-benzodiazol-5-yl)oxy]phenyl}amino)pyrido[3,4-d]pyrimidin-6-yl]piperazin-1-yl]prop-2-en-1-one] | 20.1 nM | 3800 nM | 27.4 nM
C=CC(=O)N1CCN(c2cc3c(Nc4ccc(Oc5ccn6ncnc6c5)c(C)c4)ncnc3cn2)[C@@H](C)C1 [Compound 69, (S)-1-(4-(4-((4-([1,2,4]triazolo[1,5-a]pyridin-7-yloxy)-3-methylphenyl)amino)pyrido[3,4-d]pyrimidin-6-yl)-3-methylpiperazin-1-yl)prop-2-en-1-one] | 59.6 nM | > 10000 nM | 155 nM
C=CC(=O)N1CC[C@H](Oc2ccc3ncnc(Nc4ccc(Oc5ccn6ncnc6c5)c(C)c4)c3c2)C1 [Compound 1, (S)-1-(3-((4-((4-([1,2,4]triazolo[1,5-a]pyridin-7-yloxy)-3-methylphenyl)amino)quinazolin-6-yl)oxy)pyrrolidin-1-yl)prop-2-en-1-one] | 5.68 nM | 328 nM | 8.98 nM
C=CC(=O)N1CCN(c2ccc3ncnc(Nc4ccc(Oc5ccn6ncnc6c5)c(C)c4)c3n2)[C@@H](C)C1 [Compound 12, 1-[(3S)-3-methyl-4-{4-[(3-methyl-4-{[1,2,4]triazolo[1,5-a]pyridin-7-yloxy}phenyl)amino]pyrido[3,2-d]pyrimidin-6-yl}piperazin-1-yl]prop-2-en-1-one] | 13.6 nM | 1180 nM | 7.49 nM
C=CC(=O)N1CCN(c2ccc3ncnc(Nc4ccc(Cc5ccn6ncnc6c5)c(C)c4)c3c2F)C[C@H]1C [Compound 62, 1-[(2R)-4-{5-fluoro-4-[(3-methyl-4-{[1,2,4]triazolo[1,5-a]pyridin-7-ylmethyl}phenyl)amino]quinazolin-6-yl}-2-methylpiperazin-1-yl]prop-2-en-1-one] | 46.9 nM | > 10000 nM | 22.7 nM
C=CC(=O)N1CCN(c2ncc3ncnc(Nc4ccc(Oc5ccc6c(c5)ncn6C)c(C)c4)c3n2)C[C@H]1C [Compound 57, (R)-1-(2-methyl-4-(8-((3-methyl-4-((1-methyl-1H-benzo[d]imidazol-5-yl)oxy)phenyl)amino)pyrimido[5,4-d]pyrimidin-2-yl)piperazin-1-yl)prop-2-en-1-one] | 25.8 nM | 2880 nM | 21 nM
C=CC(=O)N1CCN(c2ncc3ncnc(Nc4ccc(Oc5ccn6ncnc6c5)c(C)c4)c3n2)CC1 [Compound 45, 1-(4-{8-[(3-methyl-4-{[1,2,4]triazolo[1,5-a]pyridin-7-yloxy}phenyl)amino]pyrimido[5,4-d][1,3]diazin-2-yl}piperazin-1-yl)prop-2-en-1-one] | 9.23 nM | 667 nM | 4.5 nM
CC#CC(=O)N1C2CC1CN(c1ccc3ncnc(Nc4ccc(Oc5ccn6ncnc6c5)c(C)c4)c3n1)C2 [Compound 29, 1-(3-{4-[(3-methyl-4-{[1,2,4]triazolo[1,5-a]pyridin-7-yloxy}phenyl)amino]pyrido[3,2-d]pyrimidin-6-yl}-3,6-diazabicyclo[3.1.1]heptan-6-yl)but-2-yn-1-one] |  | 5430 nM | 35.9 nM
C=CC(=O)N1CCN(c2ccc3ncnc(Nc4ccc(Oc5ccc6c(c5)ncn6C)c(C)c4)c3c2F)C[C@H]1C [Compound 64, 1-[(2R)-4-[5-fluoro-4-({3-methyl-4-[(1-methyl-1,3-benzodiazol-5-yl)oxy]phenyl}amino)quinazolin-6-yl]-2-methylpiperazin-1-yl]prop-2-en-1-one] | 38.6 nM | 2520 nM | 12.4 nM
Cc1cc(Nc2ncnc3ccc(NC4=NC(C)(C)CO4)cc23)ccc1Oc1ccn2ncnc2c1 [Tucatinib, tucatinib, reference compound] |  |  | 356 nM

Now from value to molecule, other results behind:

IC50 [1] | IC50 [2] | SMILES | GI50 [3]
25.2 nM | > 10000 nM | C=CC(=O)N1CCN(c2ncc3ncnc(Nc4ccc(Cc5ccc6c(c5)ncn6C)c(C)c4)c3n2)CC1 [Compound 84, 1-{4-[8-({3-methyl-4-[(1-methyl-1,3-benzodiazol-5-yl)methyl]phenyl}amino)-[1,3]diazino[5,4-d]pyrimidin-2-yl]piperazin-1-yl}prop-2-en-1-one] | 10.7 nM
63.1 nM | 7290 nM | C=CC(=O)N1CCN(c2ncc3ncnc(Nc4ccc(Cc5ccc6c(c5)ncn6C)c(C)c4)c3n2)C[C@H]1C [Compound 96, (R)-1-(2-methyl-4-(8-((3-methyl-4-((1-methyl-1H-benzo[d]imidazol-5-yl)methyl)phenyl)amino)pyrimido[5,4-d]pyrimidin-2-yl)piperazin-1-yl)prop-2-en-1-one] | 12.5 nM
227 nM | > 10000 nM | C=CC(=O)N1CCN(c2cc3c(Nc4ccc(CN5CCn6ncnc6C5)c(C)c4)ncnc3cn2)CC1 [Compound 99, 1-(4-{4-[(3-methyl-4-{5H,6H,8H-[1,2,4]triazolo[1,5-a]pyrazin-7-ylmethyl}phenyl)amino]pyrido[3,4-d]pyrimidin-6-yl}piperazin-1-yl)prop-2-en-1-one] | > 500 nM
9.86 nM | 3070 nM | C=CC(=O)N1CCN(c2ccc3ncnc(Nc4ccc(Cc5ccn6ncnc6c5)c(C)c4)c3n2)CC1 [Compound 110, 1-(4-(4-((4-([1,2,4]triazolo[1,5-a]pyridin-7-ylmethyl)-3-methylphenyl)amino)pyrido[3,2-d]pyrimidin-6-yl)piperazin-1-yl)prop-2-en-1-one] | 13.3 nM
14.4 nM | 3230 nM | C=CC(=O)N1CCN(c2ccc3ncnc(Nc4ccc(Oc5ccn6ncnc6c5)c(C)c4)c3c2)[C@@H](C)C1 [Compound 90, (S)-1-(4-(4-((4-([1,2,4]triazolo[1,5-a]pyridin-7-yloxy)-3-methylphenyl)amino)quinazolin-6-yl)-3-methylpiperazin-1-yl)prop-2-en-1-one] | 12 nM
